We go through one molecule from paper PMC7144376, “Antiviral Effects of Novel 2-Benzoxyl-Phenylpyridine Derivatives” (Molecules, 2020).

This assay relates to CVB3 protein. The assay is described as follows: CVB3 protein by indirect immunofluorescence. As to conditions: 160 μM, Hep-2 cells. The assay is classed as cell-based, Coxsackievirus B3. Here is the method:
Figure 5 Effect of W13 on CVB3 replication in Hep-2 cells. Hep-2 cells infected with 100 TCID50 CVB3 were incubated in the absence or presence of 160 µM W13 and harvested at the indicated times post-infection. (a) Progeny virus yields were determined. (b) Viral RNA levels were measured by analysis of total RNA. GAPDH was amplified and the resulting data was used for normalization. Values represent the means ± SDs of three independent experiments. * p < 0.05; ** p < 0.01, compared with the virus control group. (c) CVB3 protein levels were determined by indirect immunofluorescence, using the mouse anti-coxsackie virus B3 monoclonal antibody, MAB948, and an alexa-fluor-488-conjugated affiniPure goat anti-mouse IgG (H + L), after incubation with W13 for 24 h. Nuclei were stained with DAPI and green foci indicate the presence of CVB3 protein.
The influence of W13 on CVB3 replication was also determined at the translational level. […] Then, intracellular viral protein was detected by indirect immunofluorescence analysis after incubation for 8, 24, and 36 h.
Hep-2 cells (1 × 10^5) were seeded in 24-well plates and incubated overnight. […] After the plates had been washed three times with 0.1% Tween-20 in PBS, they were incubated with the appropriate Alexa-Fluor-488-labeled secondary antibody (Invitrogen) and fluorescence evaluated using an OLYMPUS IX73 microscope (Tokyo, Japan).

As to `Cc1ccc(OC(=O)C(C)(C)C)c(-c2ccccn2)c1` [W13], the “viral protein synthesis (immunofluorescence foci)” value is on record as “suppressed”.
